From EP1708721B1, “MYOCARDIAL PERFUSION IMAGING USING ADENOSINE RECEPTOR AGONISTS” (Gilead Sciences, Inc., priority 2004, dated 2005)

How the values were obtained:
awake rats = assay: Example 5: sympathoexcitation, heart rate, blood pressure and plasma catecholamines after i.v. bolus; format: in vivo
Protocol: The present study was carried out to determine whether CVT-3146, a selective A2A adenosine receptor agonist, causes sympathoexcitation. CVT-3146 (0.31µg/kg-50 µg/kg) was given as a rapid i.v. bolus to awake rats and heart rate (HR) and blood pressure (BP) were monitored. CVT-3146 caused an increase in BP and systolic pressure (SP) at lower doses while at higher doses there was a decrease in BP and SP. […] The increase in HR was evident at the lowest dose of CVT-3146 at which there was no appreciable decrease in BP. ZM241385 (30 µg/kg , N=5), an A2A receptor antagonist, attenuated the decrease in BP (CVT-3146: 14±3%, ZM: 1±1 %) and the increase in HR (CVT: 27±3%, ZM: 18±3%) caused by CVT-3146. Pretreatment with metoprolol (MET, 1 mg/kg, n=5), a beta-blocker, attenuated the increase in HR (CVT: 27±3%, MET: 15±2%), but had no effect on hypotension caused by CVT-3146. In the presence of hexamethonium (HEX, 10 mg/kg, n=5), a ganglionic blocker, the tachycardia was prevented (CVT: 27±3%, HEX: -1±2%), but BP was further reduced (CVT: -11±2%, HEX: -49±5%).

awake dogs = assay: Example 8: vasodilator effects in different vascular beds of chronically instrumented dogs; format: in vivo; conditions: 250 µg/kg
Text: In this study the vasodilator effects of CVT-3146 were compared to those of ADO in different vascular beds in awake dogs. Dogs were chronically instrumented for measurements of the blood flow in coronary (CBF), mesenteric (MBF), hind limb (LBF), and renal (RBF) vascular beds, and hemodynamics.

humans = assay: Example 1: open label study, CBFv by Doppler flow wire after IV bolus in catheterization patients; format: in vivo; conditions: intracoronary (IC) injection of 18 µg
Protocol: The purpose of this open label study was to determine the magnitude and duration of effect of CVT-3146 (10-500 µg) on CBFv in humans.
METHODS: Patients undergoing a clinically indicated coronary catheterization with no more than a 70% stenosis in any coronary artery and no more than a 50% stenosis of the study vessel had CBFv determined by Doppler flow wire. Study subject were selected after measuring baseline and peak CBFv after an intracoronary (IC) injection of 18 µg of Ado. Twenty-three patients, who were identified as meeting the study criteria of having a peak to baseline CBFv ratio of ≥ 2.5 in response to Adenosine, received a rapid (≤ 10 sec) peripheral IV bolus of CVT-3146; Doppler signals were stable and interpretable over the time-course of the increase in CBFv in 17 patients.

[1] = tested on: subjects (26 men, 9 women); assay: Example 6: stress/rest SPECT myocardial perfusion imaging, adenosine versus CVT-3146; format: in vivo, human; conditions: SPECT MPI, CVT-3146 400 or 500 mcg IV bolus, A infusion
Protocol: To determine the ability of CVT-3146 to produce coronary hyperemia and accurately detect CAD, 35 subjects (26 men, 9 women; 67±10 years) underwent both A and CVT-3146 stress/rest MPI, with 10.0±9.1 days between studies. […] CVT-3146 [400 mcg (n=18), 500 mcg (n=17)] was administered as an IV bolus immediately followed by a saline flush, and then a Tc-99m radiopharmaceutical [sestamibi (n=34), tetrofosmin (n=1)]. SPECT images were uniformly processed, intermixed with control studies (normal and fixed-only defects), and interpreted by three observers in a blinded fashion using a 17-segment model. Quantitative analysis was also performed using 4D MSPECT. In addition to three separate readings, a consensus interpretation was performed and then a direct, same-screen comparison of A and CVT-3146 images undertaken to determine relative differences, using 5 regions per study.

[2] = in the presence of hexamethonium 10 mg/kg, n=5
[3] = pretreatment with metoprolol 1 mg/kg, n=5

## Nc1nc(NCCc2ccc(O)cc2)nc2nc(-c3ccco3)nn12 [ZM241385]
Awake rats; with ZM241385 30 µg/kg, N=5
  decrease in BP caused by CVT-3146: 1±1%
  increase in HR caused by CVT-3146: 18±3%

## Nc1ncnc2c1ncn2[C@@H]1O[C@H](CO)[C@@H](O)[C@H]1O [adenosine]
Awake dogs
  duration for CBF above 2-fold of the baseline: 16 ± 3 s
humans
  peak to baseline ratio (CBFv): 3.2 ± 0.5
[1]; 4D MSPECT
  summed scores following stress, quantitative methods of analysis: 13.7±1.5
[1]; 17-segment model
  summed scores following stress, visual: 13.9±1.5

## C[N+](C)(C)CCCCCC[N+](C)(C)C [hexamethonium]
Awake rats; [2]
  BP (change) caused by CVT-3146: -49±5%
  tachycardia (HR change) caused by CVT-3146: -1±2%

## COCCc1ccc(OCC(O)CNC(C)C)cc1 (stereo not shown) [metoprolol]
Awake rats; [3]
  effect on hypotension caused by CVT-3146: no effect
  increase in HR caused by CVT-3146: 15±2%
